Test system: Sprague-Dawley rats
Assay: Biomarkers in colon of TNBS-induced acute colitis rats (Example E1)
Assay type: in vivo, rat
Settings: protein by ELISA, vs vehicle treated controls, Peptide 993 65 mg/kg/day; for IL-22 level in colon / MPO level in colon: Peptide 980 37 mg/kg/day
Excerpt: The effect of treatment with peptide inhibitors of IL23R on inflammatory markers associated with IL23 signaling was examined in a rat model of acute colitis. Acute colitis was induced in Sprague-Dawley rats by a single intra-rectal instillation of 2,4,6-Trinitrobenzenesulfonic acid (TNBS) followed by efficacy analysis at day seven. Pharmacodynamic (PD) biomarkers were examined using enzyme-linked immunosorbent assay (ELISA), quantitative reverse transcription polymerase chain reaction, or immunohistochemistry analysis of colon, feces, or serum samples obtained from colitic rats treated with Peptide 993, Peptide 1185, or Peptide 980.
Acute colitis was induced by providing 7-week-old female Sprague-Dawley rats with various dosages of 64 mg/kg or 48 mg/kg of TNBS in 50% ethanol (TNBS/ethanol) administered intrarectally at Day 0. Peptide inhibitors were administered orally two or three times a day at various dosages and were provided in drinking water at various dosages, for 8 days starting approximately 24 hours (Day −1) prior TNBS inoculation.
Levels of a number of inflammatory biomarkers were examined in the colons. The distal colon tissue samples, designated for protein expression analysis, were flash frozen after collection. For protein extraction, the samples were thawed, weighed and homogenized in the extraction buffer (PBS pH 7.2 supplemented with Protease Inhibitors, 3× volume:weight). The homogenates were centrifuged at 13 krpm at 4° C. for 15 minutes, a total of two times to remove the debris. The supernatants were saved in multiple aliquots in −80° C. and subsequently used for protein expression analysis on ELISA. The total protein in each sample was quantified using BCA assay. MPO, IL-10, IL-6, IL-17A and IL-22 biomarker protein expression in the distal colon samples was analyzed using commercially available rat ELISA kits.

Row | Compound | IL-17A level in colon | IL-22 level in colon | MPO level in colon
1 | CC(=O)NCCCCC(NC(=O)C1(NC(=O)C(Cc2ccc3ccccc3c2)NC(=O)C(Cc2ccc(OCCN)cc2)NC(=O)C2NC(=O)C(CCC(N)=O)NC(=O)C(Cc3c[nH]c4ccccc34)NC(=O)C(C(C)O)NC(=O)C(CC(N)=O)NC(=O)C(NC(C)=O)C(C)(C)SSC2(C)C)CCOCC1)C(=O)NC(CC(N)=O)C(=O)NC(CC(N)=O)C(N)=O (centres unmarked) [Peptide 1185, Ac-cyclo[[Pen]-NTWQ-[Pen]]-[Phe[4-(2-aminoethoxy)]]-[2-Nal]-[4-amino-4-carboxy-tetrahydropyran]-[Lys(Ac)]-NN-NH2] | did not significantly reduce | did not significantly reduce | did not significantly reduce
2 | Ac-cyclo[[Abu]-QTWQC]-[Phe[4-(2-aminoethoxy)]]-[2-Nal]-[4-amino-4-carboxy-tetrahydropyran]-ENN-NH2 [Peptide 980] |  | reduced | reduced

From patent US20200064357A1, “METHODS FOR DETERMINING AND MONITORING GASTROINTESTINAL INFLAMMATION” (Protagonist Therapeutics, Inc., priority 2016, published 2020)
